From the kinase profiling compilation of Christmann-Franck et al. (2016)

Assays:
Test in all cases: KINOMEscan competition binding
Conditions in all cases: compound 10.0 µM
CaMK1 (human) = CaMK1 (human) (UniProt Q14012)
ERBB2 (human) = ERBB2 (human) (UniProt P04626)
CDK17 (human) = CDK17 (human) (UniProt Q00537)
FGR (human) = FGR (human) (UniProt P09769)
MAST1 (human) = MAST1 (human) (UniProt Q9Y2H9)
ROCK2 (human) = ROCK2 (human) (UniProt O75116)
TYRO3 (human) = TYRO3 (human) (UniProt Q06418)
RPS6KA4 KD2 (human) = RPS6KA4 KD2 (human) (UniProt O75676)
CAMKK2 (human) = CAMKK2 (human) (UniProt Q96RR4)
HIPK4 (human) = HIPK4 (human) (UniProt Q8NE63)
CSNK1D (human) = CSNK1D (human) (UniProt P48730)
CAMKK1 (human) = CAMKK1 (human) (UniProt Q8N5S9)
HUNK (human) = HUNK (human) (UniProt P57058)
[1] = system: EGFR (human), P00533 [A750P; 747-749 del]
STK38 (human) = STK38 (human) (UniProt Q15208)
TBK1 (human) = TBK1 (human) (UniProt Q9UHD2)
SRMS (human) = SRMS (human) (UniProt Q9H3Y6)
ACVR1 (human) = ACVR1 (human) (UniProt Q04771)
ROCK1 (human) = ROCK1 (human) (UniProt Q13464)
LATS1 (human) = LATS1 (human) (UniProt O95835)
EGFR (human) = EGFR (human) (UniProt P00533)
PRKCE (human) = PRKCE (human) (UniProt Q02156)
CDK18 (human) = CDK18 (human) (UniProt Q07002)
PRKG1 (human) = PRKG1 (human) (UniProt Q13976)
Sequence of PRKG1 (human) (Q13976 whole entry, looked up): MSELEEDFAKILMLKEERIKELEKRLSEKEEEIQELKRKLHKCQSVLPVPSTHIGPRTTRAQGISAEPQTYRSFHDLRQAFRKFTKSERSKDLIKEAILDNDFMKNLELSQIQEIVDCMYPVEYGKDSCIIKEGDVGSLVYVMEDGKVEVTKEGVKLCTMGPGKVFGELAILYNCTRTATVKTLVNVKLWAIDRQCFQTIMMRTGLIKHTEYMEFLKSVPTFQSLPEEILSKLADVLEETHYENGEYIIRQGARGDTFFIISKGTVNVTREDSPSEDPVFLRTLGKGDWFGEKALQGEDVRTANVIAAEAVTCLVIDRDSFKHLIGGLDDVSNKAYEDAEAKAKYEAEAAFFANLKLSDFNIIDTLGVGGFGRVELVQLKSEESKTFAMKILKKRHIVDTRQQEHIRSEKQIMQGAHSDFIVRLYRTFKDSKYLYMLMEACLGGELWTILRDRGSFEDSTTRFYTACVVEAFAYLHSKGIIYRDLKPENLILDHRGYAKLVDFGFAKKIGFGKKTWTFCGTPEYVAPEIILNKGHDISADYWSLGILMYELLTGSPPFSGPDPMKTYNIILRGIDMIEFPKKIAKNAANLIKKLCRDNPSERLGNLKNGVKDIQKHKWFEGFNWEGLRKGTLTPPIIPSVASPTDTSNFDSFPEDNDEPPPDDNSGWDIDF

TTK (human) = TTK (human) (UniProt P33981)
CAMK2G (human) = CAMK2G (human) (UniProt Q13555)
MAPK1 (human) = MAPK1 (human) (UniProt P28482)
Sequence of MAPK1 (human) (P28482 whole entry, looked up): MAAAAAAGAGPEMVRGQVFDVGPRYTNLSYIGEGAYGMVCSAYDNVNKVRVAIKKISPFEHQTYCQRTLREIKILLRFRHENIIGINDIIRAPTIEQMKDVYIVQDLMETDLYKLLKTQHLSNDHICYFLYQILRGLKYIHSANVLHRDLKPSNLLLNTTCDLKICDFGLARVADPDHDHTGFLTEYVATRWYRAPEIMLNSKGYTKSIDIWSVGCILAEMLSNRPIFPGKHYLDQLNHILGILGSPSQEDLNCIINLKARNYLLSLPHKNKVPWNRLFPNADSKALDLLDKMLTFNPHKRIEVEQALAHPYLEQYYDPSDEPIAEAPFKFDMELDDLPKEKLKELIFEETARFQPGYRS

HCK (human) = HCK (human) (UniProt P08631)
TAOK1 (human) = TAOK1 (human) (UniProt Q7L7X3)
[2] = system: PIK3CA (human), P42336 [M1043I]
BRSK2 (human) = BRSK2 (human) (UniProt Q8IWQ3)
MAP3K11 (human) = MAP3K11 (human) (UniProt Q16584)
Sequence of MAP3K11 (human) (Q16584 whole entry, looked up): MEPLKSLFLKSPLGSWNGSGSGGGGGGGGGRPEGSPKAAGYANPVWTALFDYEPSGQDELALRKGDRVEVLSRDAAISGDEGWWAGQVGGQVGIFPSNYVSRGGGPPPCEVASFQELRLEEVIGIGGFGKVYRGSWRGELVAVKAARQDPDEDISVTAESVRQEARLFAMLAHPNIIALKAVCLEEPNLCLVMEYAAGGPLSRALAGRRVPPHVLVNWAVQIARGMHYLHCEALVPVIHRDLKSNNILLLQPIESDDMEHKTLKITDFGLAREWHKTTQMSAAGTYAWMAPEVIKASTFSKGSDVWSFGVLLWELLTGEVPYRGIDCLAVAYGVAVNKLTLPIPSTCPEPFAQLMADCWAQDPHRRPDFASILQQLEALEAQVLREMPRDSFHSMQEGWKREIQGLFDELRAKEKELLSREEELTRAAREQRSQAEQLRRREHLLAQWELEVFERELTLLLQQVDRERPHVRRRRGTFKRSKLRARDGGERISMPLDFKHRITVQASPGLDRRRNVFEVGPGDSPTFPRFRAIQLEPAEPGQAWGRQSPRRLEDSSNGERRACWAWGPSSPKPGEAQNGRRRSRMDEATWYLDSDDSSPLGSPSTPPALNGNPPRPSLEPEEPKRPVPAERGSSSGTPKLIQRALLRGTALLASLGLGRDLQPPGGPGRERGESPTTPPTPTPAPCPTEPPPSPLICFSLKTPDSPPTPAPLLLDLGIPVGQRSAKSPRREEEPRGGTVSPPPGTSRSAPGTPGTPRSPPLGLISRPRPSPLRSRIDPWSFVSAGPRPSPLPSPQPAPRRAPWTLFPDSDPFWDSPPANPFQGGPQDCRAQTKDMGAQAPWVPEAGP

CDK16 (human) = CDK16 (human) (UniProt Q00536)
DCLK1 (human) = DCLK1 (human) (UniProt O15075)
EPHB6 (human) = EPHB6 (human) (UniProt O15197)
TRPM6 (human) = TRPM6 (human) (UniProt Q9BX84)
MYLK (human) = MYLK (human) (UniProt Q15746)
Sequence of MYLK (human) (Q15746 whole entry, looked up): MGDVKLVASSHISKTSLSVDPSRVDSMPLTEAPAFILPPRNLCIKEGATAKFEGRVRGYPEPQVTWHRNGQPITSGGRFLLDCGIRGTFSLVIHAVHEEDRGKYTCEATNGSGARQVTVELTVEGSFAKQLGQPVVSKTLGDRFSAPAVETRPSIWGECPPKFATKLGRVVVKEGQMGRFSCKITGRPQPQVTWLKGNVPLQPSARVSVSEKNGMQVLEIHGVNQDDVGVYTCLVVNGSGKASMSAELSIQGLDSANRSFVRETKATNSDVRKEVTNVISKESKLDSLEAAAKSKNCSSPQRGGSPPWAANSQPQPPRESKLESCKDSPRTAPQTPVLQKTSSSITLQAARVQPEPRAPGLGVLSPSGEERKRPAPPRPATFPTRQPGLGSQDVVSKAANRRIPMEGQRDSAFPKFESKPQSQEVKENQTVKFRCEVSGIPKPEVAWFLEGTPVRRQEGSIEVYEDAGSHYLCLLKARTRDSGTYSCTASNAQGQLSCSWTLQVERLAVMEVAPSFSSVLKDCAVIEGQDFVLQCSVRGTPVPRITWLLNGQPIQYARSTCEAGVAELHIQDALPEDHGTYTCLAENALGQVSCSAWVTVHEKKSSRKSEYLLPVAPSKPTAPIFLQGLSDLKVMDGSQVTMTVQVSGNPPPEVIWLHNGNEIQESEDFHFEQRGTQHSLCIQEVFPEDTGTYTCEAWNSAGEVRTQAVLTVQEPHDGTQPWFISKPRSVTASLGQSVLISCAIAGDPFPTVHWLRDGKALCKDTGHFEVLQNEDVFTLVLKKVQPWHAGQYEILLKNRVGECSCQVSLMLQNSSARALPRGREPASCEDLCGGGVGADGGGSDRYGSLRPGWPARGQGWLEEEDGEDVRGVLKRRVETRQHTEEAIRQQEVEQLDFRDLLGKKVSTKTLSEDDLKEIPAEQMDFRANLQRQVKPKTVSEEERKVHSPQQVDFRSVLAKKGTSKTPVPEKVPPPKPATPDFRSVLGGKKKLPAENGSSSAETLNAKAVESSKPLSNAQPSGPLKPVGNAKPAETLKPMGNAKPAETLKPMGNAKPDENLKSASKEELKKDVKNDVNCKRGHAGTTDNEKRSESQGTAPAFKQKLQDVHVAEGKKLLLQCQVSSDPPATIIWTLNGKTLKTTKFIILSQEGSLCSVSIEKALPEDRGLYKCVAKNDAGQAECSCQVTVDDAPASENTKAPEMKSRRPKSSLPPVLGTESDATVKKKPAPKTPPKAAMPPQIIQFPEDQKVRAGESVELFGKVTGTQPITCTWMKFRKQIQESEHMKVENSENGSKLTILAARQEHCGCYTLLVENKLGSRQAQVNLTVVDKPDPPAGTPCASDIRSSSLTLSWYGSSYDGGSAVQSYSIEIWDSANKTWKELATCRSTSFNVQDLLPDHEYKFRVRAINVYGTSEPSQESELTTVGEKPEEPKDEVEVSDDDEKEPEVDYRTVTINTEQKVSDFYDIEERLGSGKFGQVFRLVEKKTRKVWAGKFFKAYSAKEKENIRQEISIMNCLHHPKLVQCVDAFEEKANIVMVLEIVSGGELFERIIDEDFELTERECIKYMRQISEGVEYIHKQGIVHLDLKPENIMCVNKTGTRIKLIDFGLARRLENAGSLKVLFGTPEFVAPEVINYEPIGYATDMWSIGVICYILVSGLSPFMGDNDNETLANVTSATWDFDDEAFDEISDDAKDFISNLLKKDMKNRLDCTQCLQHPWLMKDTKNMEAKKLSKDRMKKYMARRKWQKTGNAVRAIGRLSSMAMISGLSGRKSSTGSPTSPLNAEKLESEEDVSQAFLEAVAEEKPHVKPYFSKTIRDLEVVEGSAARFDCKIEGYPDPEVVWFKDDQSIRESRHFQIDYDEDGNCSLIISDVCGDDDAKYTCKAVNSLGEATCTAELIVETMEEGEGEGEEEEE

FGFR4 (human) = FGFR4 (human) (UniProt P22455)
STK17B (human) = STK17B (human) (UniProt O94768)
Sequence of STK17B (human) (O94768 whole entry, looked up): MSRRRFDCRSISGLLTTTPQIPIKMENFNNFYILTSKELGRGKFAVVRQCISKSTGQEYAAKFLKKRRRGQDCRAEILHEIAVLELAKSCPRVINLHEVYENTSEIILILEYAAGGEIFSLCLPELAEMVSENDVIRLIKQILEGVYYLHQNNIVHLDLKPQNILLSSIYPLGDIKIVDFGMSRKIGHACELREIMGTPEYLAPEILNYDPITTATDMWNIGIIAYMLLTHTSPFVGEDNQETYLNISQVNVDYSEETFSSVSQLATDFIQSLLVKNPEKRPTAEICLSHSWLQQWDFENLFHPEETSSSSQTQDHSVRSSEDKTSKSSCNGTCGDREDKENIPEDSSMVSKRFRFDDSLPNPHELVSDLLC

CSNK1G1 (human) = CSNK1G1 (human) (UniProt Q9HCP0)
BTK (human) = BTK (human) (UniProt Q06187)

Sequence of CDK17 (human) (Q00537 whole entry, looked up): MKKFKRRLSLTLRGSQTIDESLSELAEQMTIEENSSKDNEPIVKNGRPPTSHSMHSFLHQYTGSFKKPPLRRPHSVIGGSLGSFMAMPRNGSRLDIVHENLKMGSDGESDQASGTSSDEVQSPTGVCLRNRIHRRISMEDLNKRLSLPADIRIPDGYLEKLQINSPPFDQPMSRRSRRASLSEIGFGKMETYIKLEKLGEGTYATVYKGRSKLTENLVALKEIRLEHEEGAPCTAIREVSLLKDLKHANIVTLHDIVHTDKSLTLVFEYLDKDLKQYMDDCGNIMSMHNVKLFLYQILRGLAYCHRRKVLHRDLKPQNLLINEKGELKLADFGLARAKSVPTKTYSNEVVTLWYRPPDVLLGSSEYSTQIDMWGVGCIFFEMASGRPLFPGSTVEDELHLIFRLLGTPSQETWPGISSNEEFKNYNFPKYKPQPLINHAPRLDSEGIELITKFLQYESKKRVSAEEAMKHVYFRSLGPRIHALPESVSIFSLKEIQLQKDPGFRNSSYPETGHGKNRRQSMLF
Sequence of CaMK1 (human) (Q14012 whole entry, looked up): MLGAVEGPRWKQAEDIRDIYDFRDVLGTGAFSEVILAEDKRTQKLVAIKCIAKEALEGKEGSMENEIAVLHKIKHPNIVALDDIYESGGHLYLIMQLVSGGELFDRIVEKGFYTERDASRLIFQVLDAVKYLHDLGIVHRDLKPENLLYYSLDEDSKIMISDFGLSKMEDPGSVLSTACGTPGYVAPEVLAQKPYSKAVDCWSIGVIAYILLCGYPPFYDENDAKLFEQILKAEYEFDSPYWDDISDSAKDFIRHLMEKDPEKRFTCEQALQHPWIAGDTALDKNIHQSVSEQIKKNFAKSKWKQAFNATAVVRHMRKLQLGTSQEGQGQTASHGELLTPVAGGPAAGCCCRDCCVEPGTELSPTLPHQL

SMILES | kinase still bound, per cent of control (CaMK1 (human)) [%] | kinase still bound, per cent of control (ERBB2 (human)) [%] | per cent of control (CDK17 (human)) [%] | kinase still bound, per cent of control (FGR (human)) [%] | kinase still bound, per cent of control (MAST1 (human)) [%] | kinase still bound, per cent of control (ROCK2 (human)) [%] | kinase still bound, per cent of control (TYRO3 (human)) [%] | kinase still bound, per cent of control (RPS6KA4 KD2 (human)) [%] | kinase still bound, per cent of control (CAMKK2 (human)) [%] | kinase still bound, per cent of control (HIPK4 (human)) [%] | per cent of control (CSNK1D (human)) [%] | kinase still bound, per cent of control (CAMKK1 (human)) [%] | kinase still bound, per cent of control (HUNK (human)) [%] | kinase still bound, per cent of control (STK38 (human)) [%] | kinase still bound, per cent of control (TBK1 (human)) [%] | kinase still bound, per cent of control (SRMS (human)) [%] | kinase still bound, per cent of control (ACVR1 (human)) [%] | kinase still bound, per cent of control (ROCK1 (human)) [%] | kinase still bound, per cent of control (LATS1 (human)) [%] | kinase still bound, per cent of control (PRKCE (human)) [%] | also measured
CCC(=O)N1CCN(c2ccc(-n3c(=O)ccc4cnc5ccc(-c6cnc7ccccc7c6)cc5c43)cc2C(F)(F)F)CC1 | 50 | 91 | 97 | 78 | 93 | 50 | 31 | 100 | 85 | 4.6 | 4.3 | 80 | 91 | 100 | 93 | 92 | 28 | 53 | 100 | 86 | kinase still bound, per cent of control [1]: 100%; kinase still bound, per cent of control (EGFR (human)): 85%; per cent of control (CDK18 (human)): 97%; kinase still bound, per cent of control (PRKG1 (human)): 86%; kinase still bound, per cent of control (TTK (human)): 9.6%; kinase still bound, per cent of control (CAMK2G (human)): 79%; kinase still bound, per cent of control (MAPK1 (human)): 100%; kinase still bound, per cent of control (HCK (human)): 77%; kinase still bound, per cent of control (TAOK1 (human)): 58%; kinase still bound, per cent of control [2]: 8.6%; kinase still bound, per cent of control (BRSK2 (human)): 76%; kinase still bound, per cent of control (MAP3K11 (human)): 69%; per cent of control (CDK16 (human)): 91%; kinase still bound, per cent of control (DCLK1 (human)): 100%; kinase still bound, per cent of control (EPHB6 (human)): 80%; kinase still bound, per cent of control (TRPM6 (human)): 100%; per cent of control (MYLK (human)): 87%; kinase still bound, per cent of control (FGFR4 (human)): 21%; kinase still bound, per cent of control (STK17B (human)): 67%; kinase still bound, per cent of control (CSNK1G1 (human)): 100%
CC(C)n1nc(-c2cc3cc(O)ccc3[nH]2)c2c(N)ncnc21 | 45 | 29 | 100 | 5.6 | 87 | 60 | 77 | 0 | 30 | 27 | 2.4 | 49 | 99 | 60 | 84 | 61 | 0.1 | 61 | 55 | 0 | kinase still bound, per cent of control (BTK (human)): 22%; per cent of control (CDK18 (human)): 100%; kinase still bound, per cent of control (PRKG1 (human)): 100%; kinase still bound, per cent of control (TTK (human)): 9.2%; kinase still bound, per cent of control (CAMK2G (human)): 56%; kinase still bound, per cent of control (MAPK1 (human)): 100%; kinase still bound, per cent of control (HCK (human)): 2.5%; kinase still bound, per cent of control (TAOK1 (human)): 0.2%; kinase still bound, per cent of control (BRSK2 (human)): 0.95%; kinase still bound, per cent of control (MAP3K11 (human)): 79%; per cent of control (CDK16 (human)): 98%; kinase still bound, per cent of control (DCLK1 (human)): 70%; kinase still bound, per cent of control (EPHB6 (human)): 5.3%; kinase still bound, per cent of control (TRPM6 (human)): 70%; per cent of control (MYLK (human)): 0.9%; kinase still bound, per cent of control (FGFR4 (human)): 12%; kinase still bound, per cent of control (STK17B (human)): 40%
